Data as given in patent US20080015181A1, “Pharmaceutical Compositions Comprising Droxidopa” (Chelsea Therapeutics, Inc., priority 2006, published 2008).

Tests used:
plasma norepinephrine = assay: Plasma norepinephrine concentration after dosing of droxidopa or droxidopa combinations in rats; type: in vivo, male Sprague Dawley rats; settings: 2 hours post-dosing, rat
Procedure: The pharmacokinetic properties of droxidopa combinations according to the invention were evaluated in male Sprague Dawley rats. Four test groups with four rats in each group were established. Group 1 was administered droxidopa alone as a baseline group. Group 2 was administered droxidopa in combination with the COMT inhibitor entacapone. Group 3 was administered droxidopa in combination with the cholinesterase inhibitor pyridostigmine. Group 4 was administered droxidopa in combination with the MAOI nialamide. For each group, the droxidopa or droxidopa combination was formulated with a vehicle formed of a water solution containing 1% carboxymethylcellulose with 0.2% TWEEN® 80 emulsifier. […] The amounts of entacapone, pyridostigmine, and nialamide used in formulations 2-7 were provided as “low” doses and “high” doses based upon disclosure in the literature of generally accepted dosage ranges for their respective known indications.
Rats in each group were given a single gavage dose of droxidopa alone or the droxidopa combination, the time of dosing being recorded as time=0. Dosing was based upon the weight of the subject and was adjusted to provide all test subjects a droxidopa dose of approximately 100 mg per kg of body weight. Blood samples (approximately 100 μL) were collected at approximately 5, 15, and 30 minutes, and at approximately 1, 2, 4, 8, and 24 hours after dosing. […]

MAO-A than MAO-B = settings: known; cited from earlier work
[1] = compound co-administered with droxidopa, relative to droxidopa alone; rat
Procedure: The pharmacokinetic properties of droxidopa combinations according to the invention were evaluated in male Sprague Dawley rats. Four test groups with four rats in each group were established. Group 1 was administered droxidopa alone as a baseline group. Group 2 was administered droxidopa in combination with the COMT inhibitor entacapone. Group 3 was administered droxidopa in combination with the cholinesterase inhibitor pyridostigmine. Group 4 was administered droxidopa in combination with the MAOI nialamide. For each group, the droxidopa or droxidopa combination was formulated with a vehicle formed of a water solution containing 1% carboxymethylcellulose with 0.2% TWEEN® 80 emulsifier.
Rats in each group were given a single gavage dose of droxidopa alone or the droxidopa combination, the time of dosing being recorded as time=0. Dosing was based upon the weight of the subject and was adjusted to provide all test subjects a droxidopa dose of approximately 100 mg per kg of body weight. […]
As a standard, plasma droxidopa concentration in rats administered the drug vehicle with no droxidopa or droxidopa combinations present was also evaluated, and no droxidopa was detected over a 24 hour period in plasma from the rats administered the vehicle alone. Likewise, no droxidopa was detected in any subjects prior to dosing of the droxidopa or droxidopa combinations. […]

For `NC(C(=O)O)C(O)c1ccc(O)c(O)c1` (stereo not drawn) [droxidopa, threo-3-(3,4-dihydroxyphenyl)serine], the “increase in plasma norepinephrine concentration” value (plasma norepinephrine; droxidopa alone versus vehicle alone) was ~5 fold.

With `CCN(CC)C(=O)/C(C#N)=C/c1cc(O)c(O)c([N+](=O)[O-])c1` [entacapone, [(E)-2-cyano-N,N-diethyl-3-(3,4-dihydroxy-5-nitrophenyl)propenamide]] the “plasma norepinephrine concentration in relation to treatment with droxidopa alone (in words)” value (plasma norepinephrine; compound combined with droxidopa) was “increased plasma norepinephrine concentration beyond the effect of droxidopa alone”.

In the case of `O=C(NCCN1CCOCC1)c1ccc(Cl)cc1` [moclobemide], the “selectivity for MAO-A than MAO-B” value (MAO-A than MAO-B) is given as “approximately three times more selective for MAO-A than MAO-B”.

For `CN(C)C(=O)Oc1ccc[n+](C)c1` [pyridostigmine, 3-dimethylcarbamoyloxy-1-methylpyridinium], the “effect on droxidopa half-life (in words)” value [1] was “increase in droxidopa half-life”.
